US20230159546A1, “NOVEL SPIROPYRROLIDINE DERIVED ANTIVIRAL AGENTS” (Enanta Pharmaceuticals, Inc., priority 2021, published 2023)
Where two headings read alike, the source gives them in different places.

Tests used:
[1] = tested on: 229E human corona virus (hCoV); assay: 229E live virus assay (CPE, ATPlite readout, MRC-5 cells); format: cell-based, hCoV-229E; details: Human coronavirus 229E, MRC5, 144 h, read-out: 229E EC50
SARS-CoV-2 3CL-protease = SARS-CoV-2 3CL-protease (Severe acute respiratory syndrome coronavirus 2, UniProt P0DTD1); assay: SARS-CoV-2 3C-like (3CL) protease fluorescence assay (FRET); format: biochemical; details: recombinant SARS-CoV-2 3CL-protease 10 nM, 30 min preincubation at RT, duplicate; read-out: FRET IC50
[2] = MRC-5 cells, MOI 0.05, 6 days at 34° C., ATPlite, duplicate

| Compound | EC50 [1, 2] | IC50 (SARS-CoV-2 3CL-protease) | EC50 [1] |
| --- | --- | --- | --- |
| CC(C)C[C@@H](C(=O)Nc1cc(F)cc(F)c1)C(=O)N1C[C@]2(C[C@H]1C#N)C(=O)Nc1ccccc12 (single isomer, unassigned) [Example 11] | > 1000 nM | > 1000 nM | – |
| CC(C)C[C@H](C(=O)Nc1cc(F)cc(F)c1)C(=O)N1C[C@]2(C[C@H]1C#N)C(=O)Nc1ccccc12 (single isomer, unassigned) [Example 12] | > 1000 nM | > 1000 nM | – |
| CC(C)CC(C(=O)Nc1ccccc1)C(=O)N1C[C@]2(C[C@H]1C#N)C(=O)Nc1ccccc12 (stereo partly shown) [Example 1] | – | > 1000 nM | > 1000 nM |
| CC(C)CC(C(=O)N(C)c1ccccc1)C(=O)N1C[C@]2(C[C@H]1C#N)C(=O)Nc1ccccc12 (stereo partly shown) [Example 2] | > 1000 nM | > 1000 nM | – |
| CC(C)CC(C(=O)NC1CC1)C(=O)N1C[C@]2(C[C@H]1C#N)C(=O)Nc1ccccc12 (stereo partly shown) [Example 3] | 100 to 1000 nM | > 1000 nM | – |
| CC(C)CC(C(=O)Nc1cc2ccccc2[nH]1)C(=O)N1C[C@]2(C[C@H]1C#N)C(=O)Nc1ccccc12 (stereo partly shown) [Example 4] | > 1000 nM | > 1000 nM | – |
| CC(C)CC(C(=O)Nc1ccc2ccccc2c1)C(=O)N1C[C@]2(C[C@H]1C#N)C(=O)Nc1ccccc12 (stereo partly shown) [Example 5] | 100 to 1000 nM | > 1000 nM | – |
| CC(C)CC(C(=O)Nc1cc(F)ccc1F)C(=O)N1C[C@]2(C[C@H]1C#N)C(=O)Nc1ccccc12 (stereo partly shown) [Example 6] | 100 to 1000 nM | > 1000 nM | – |
| CC(C)CC(C(=O)Nc1cc(F)cc(F)c1)C(=O)N1C[C@]2(C[C@H]1C#N)C(=O)Nc1ccccc12 (stereo partly shown) [Example 7] | 100 to 1000 nM | > 1000 nM | – |
| CC(C)CC(C(=O)Nc1ccc(F)cc1F)C(=O)N1C[C@]2(C[C@H]1C#N)C(=O)Nc1ccccc12 (stereo partly shown) [Example 8] | > 1000 nM | > 1000 nM | – |
| CC(C)CC(C(=O)Nc1ccc(F)cc1Cl)C(=O)N1C[C@]2(C[C@H]1C#N)C(=O)Nc1ccccc12 (stereo partly shown) [Example 9] | > 1000 nM | > 1000 nM | – |
| CC(C)CC(C(=O)Nc1c(F)cccc1Cl)C(=O)N1C[C@]2(C[C@H]1C#N)C(=O)Nc1ccccc12 (stereo partly shown) [Example 10] | > 1000 nM | > 1000 nM | – |
| CC(C)CC(C(=O)Nc1cccc(-c2ccccc2)c1)C(=O)N1C[C@]2(C[C@H]1C#N)C(=O)Nc1ccccc12 (stereo partly shown) [Example 13] | > 1000 nM | > 1000 nM | – |
| CC(C)CC(C(=O)Nc1ccc(-c2ccccc2)cc1)C(=O)N1C[C@]2(C[C@H]1C#N)C(=O)Nc1ccccc12 (stereo partly shown) [Example 14] | > 1000 nM | > 1000 nM | – |
| CC(C(=O)Nc1ccccc1)C(=O)N1C[C@]2(C[C@H]1C#N)C(=O)Nc1ccccc12 (stereo partly shown) [Example 15] | > 1000 nM | > 1000 nM | – |
| N#C[C@@H]1C[C@@]2(CN1C(=O)C(=O)N[C@H]1CC[C@@H](NC(=O)OCc3ccccc3)CC1)C(=O)Nc1ccccc12 [Example 145] | – | > 1000 nM | – |
| N#C[C@@H]1C[C@@]2(CN1C(=O)C(=O)N[C@H]1CCC(F)(F)C1)C(=O)Nc1ccccc12 [Example 146] | – | 100 to 1000 nM | – |
| CC(C)(C)OC(=O)N[C@@H]1CCC[C@@H]1NC(=O)C(=O)N1C[C@]2(C[C@H]1C#N)C(=O)Nc1ccccc12 [Example 147] | – | 100 to 1000 nM | – |
| N#C[C@@H]1C[C@@]2(CN1C(=N)C1CC1)C(=O)Nc1ccccc12 [Example 148] | – | > 1000 nM | – |
| N#C[C@@H]1C[C@@]2(CN1C(=O)C(=O)N[C@H]1CC[C@H](C(F)(F)F)CC1)C(=O)Nc1ccccc12 [Example 149] | – | > 1000 nM | – |

| Compound | EC50 [1, 2] | IC50 (SARS-CoV-2 3CL-protease) | EC50 [1] |
| --- | --- | --- | --- |
| CC(C)(C)OC(=O)N[C@H]1CC[C@@H](NC(=O)C(=O)N2C[C@]3(C[C@H]2C#N)C(=O)Nc2ccccc23)CC1 [Example 150] | – | > 1000 nM | – |
| N#C[C@@H]1C[C@@]2(CN1C(=O)C(=O)N[C@H]1CC[C@@H](NC(=O)c3ccccc3)CC1)C(=O)Nc1ccccc12 [Example 151] | – | > 1000 nM | – |
| CC(C)(C)OC(=O)N[C@H]1CC[C@@H](NC(=O)C(=O)N2C[C@]3(C[C@H]2C#N)C(=O)Nc2ccccc23)C1 [Example 152] | – | > 1000 nM | – |
| CC(C)(C)OC(=O)N[C@H]1CCC[C@@H]1NC(=O)C(=O)N1C[C@]2(C[C@H]1C#N)C(=O)Nc1ccccc12 [Example 153] | – | > 1000 nM | – |
| N#C[C@@H]1C[C@@]2(CN1C(=O)C(=O)NCC1CCCCC1)C(=O)Nc1ccccc12 [Example 154] | – | 100 to 1000 nM | – |
| N#C[C@@H]1C[C@@]2(CN1C(=O)C(=O)NCCC1CCCCC1)C(=O)Nc1ccccc12 [Example 155] | – | 100 to 1000 nM | – |
| CCCCCCNC(=O)C(=O)N1C[C@]2(C[C@H]1C#N)C(=O)Nc1ccccc12 [Example 156] | – | 100 to 1000 nM | – |
| N#C[C@@H]1C[C@@]2(CN1C(=O)C(=O)NCC13CC4CC(CC(C4)C1)C3)C(=O)Nc1ccccc12 [Example 158] | – | < 100 nM | – |
| N#C[C@@H]1C[C@@]2(CN1C(=O)C(=O)NCCc1ccccc1)C(=O)Nc1ccccc12 [Example 159] | – | > 1000 nM | – |
| N#C[C@@H]1C[C@@]2(CN1C(=O)C(=O)NCCCc1ccccc1)C(=O)Nc1ccccc12 [Example 160] | – | 100 to 1000 nM | – |
| N#C[C@@H]1C[C@@]2(CN1C(=O)C(=O)Nc1cc(C(F)(F)F)ccn1)C(=O)Nc1ccccc12 [Example 161] | – | > 1000 nM | – |
| N#C[C@@H]1C[C@@]2(CN1C(=O)C(=O)Nc1ccc(C(F)(F)F)cn1)C(=O)Nc1ccccc12 [Example 162] | – | > 1000 nM | – |
| Cc1ccc(NC(=O)C(=O)N2C[C@]3(C[C@H]2C#N)C(=O)Nc2ccccc23)nc1 [Example 163] | – | > 1000 nM | – |
| N#C[C@@H]1C[C@@]2(CN1C(=O)C(=O)Nc1ccc(C(F)(F)F)nc1)C(=O)Nc1ccccc12 [Example 164] | – | > 1000 nM | – |
| N#C[C@@H]1C[C@@]2(CN1C(=O)C(=O)Nc1cccnc1C(F)(F)F)C(=O)Nc1ccccc12 [Example 165] | – | > 1000 nM | – |
| N#C[C@@H]1C[C@@]2(CN1C(=O)C(=O)Nc1cccc(C(F)(F)F)n1)C(=O)Nc1ccccc12 [Example 166] | – | > 1000 nM | – |
| N#C[C@@H]1C[C@@]2(CN1C(=O)C(=O)Nc1ccnc(C(F)(F)F)c1)C(=O)Nc1ccccc12 [Example 167] | – | > 1000 nM | – |
| Cc1cccc(NC(=O)C(=O)N2C[C@]3(C[C@H]2C#N)C(=O)Nc2ccccc23)n1 [Example 168] | – | > 1000 nM | – |
| CC(=O)N[C@H]1CC[C@@H](NC(=O)C(=O)N2C[C@]3(C[C@H]2C#N)C(=O)Nc2ccccc23)CC1 [Example 169] | – | > 1000 nM | – |
| N#C[C@@H]1C[C@@]2(CN1C(=O)CC(=O)N[C@@H]1CCC[C@@H]1O)C(=O)Nc1ccccc12 [Example 170] | – | > 1000 nM | – |

| Compound | EC50 [1, 2] | IC50 (SARS-CoV-2 3CL-protease) | EC50 [1] |
| --- | --- | --- | --- |
| N#C[C@@H]1C[C@@]2(CN1C(=O)CC(=O)N[C@H]1CCC[C@@H]1O)C(=O)Nc1ccccc12 [Example 171] | – | > 1000 nM | – |
| N#C[C@@H]1C[C@@]2(CN1C(=O)CC(=O)N[C@@H]1CCC[C@H]1O)C(=O)Nc1ccccc12 [Example 172] | – | > 1000 nM | – |
| N#C[C@@H]1C[C@@]2(CN1C(=O)CC(=O)N[C@H]1CCC[C@H]1O)C(=O)Nc1ccccc12 [Example 173] | – | > 1000 nM | – |
| CC(C)(C)OC(=O)N[C@@H]1CC[C@H](NC(=O)C(=O)N2C[C@]3(C[C@H]2C#N)C(=O)Nc2ccccc23)C1 [Example 174] | – | > 1000 nM | – |
| N#C[C@@H]1C[C@@]2(CN1C(=O)C(=O)NC1(c3ccccc3)CCCC1)C(=O)Nc1ccccc12 [Example 175] | – | < 100 nM | – |
| N#C[C@@H]1C[C@@]2(CN1C(=O)C(=O)Nc1cnccc1C(F)(F)F)C(=O)Nc1ccccc12 [Example 176] | – | > 1000 nM | – |
| C[C@]1(O)CC[C@H](NC(=O)C(=O)N2C[C@]3(C[C@H]2C#N)C(=O)Nc2ccccc23)CC1 [Example 177] | – | > 1000 nM | – |
| C[C@]1(O)CC[C@@H](NC(=O)C(=O)N2C[C@]3(C[C@H]2C#N)C(=O)Nc2ccccc23)CC1 [Example 178] | – | > 1000 nM | – |
| CC1(NC(=O)C(=O)N2C[C@]3(C[C@H]2C#N)C(=O)Nc2ccccc23)CCCC1 [Example 179] | – | 100 to 1000 nM | – |
| N#C[C@@H]1C[C@@]2(CN1C(=O)CC(=O)N[C@H]1CC[C@H](O)C1)C(=O)Nc1ccccc12 [Example 180] | – | > 1000 nM | – |
| N#C[C@@H]1C[C@@]2(CN1C(=O)CC(=O)N[C@@H]1CC[C@@H](O)C1)C(=O)Nc1ccccc12 [Example 181] | – | > 1000 nM | – |
| N#C[C@@H]1C[C@@]2(CN1C(=O)CC(=O)N[C@H]1CC[C@@H](O)C1)C(=O)Nc1ccccc12 [Example 182] | – | > 1000 nM | – |
| N#C[C@@H]1C[C@@]2(CN1C(=O)CC(=O)N[C@@H]1CC[C@H](O)C1)C(=O)Nc1ccccc12 [Example 183] | – | > 1000 nM | – |
| CCCC(CCC)(CCC)NC(=O)C(=O)N1C[C@]2(C[C@H]1C#N)C(=O)Nc1ccccc12 [Example 185] | – | 100 to 1000 nM | – |
| N#C[C@@H]1C[C@@]2(CN1C(=O)C(=O)NCc1cc(F)c(F)cc1F)C(=O)Nc1ccccc12 [Example 186] | – | > 1000 nM | – |
| N#C[C@@H]1C[C@@]2(CN1C(=O)C(=O)NCCc1cc(F)cc(F)c1F)C(=O)Nc1ccccc12 [Example 187] | – | > 1000 nM | – |
| Cc1cccc(C)c1NC(CC(=O)N(C)[C@@H](CC(C)C)C(=O)N1C[C@]2(C[C@H]1C#N)C(=O)Nc1ccccc12)C(F)(F)F (stereo partly shown) [Example 198] | – | < 100 nM | – |
| N#C[C@@H]1C[C@@]2(CN1C(=O)C(=O)Nc1cncc(C(F)(F)F)c1)C(=O)Nc1ccccc12 [Example 199] | – | > 1000 nM | – |
